Here are results for 29 compounds from patent US9695129B2, “Parasiticidal compositions comprising benzimidazole derivatives, methods and uses thereof” (MERIAL INC., priority 2012, dated 2017).

The first test relates to adult F. hepatica. As to the kind of experiment: In vitro test on adult F. hepatica (viability scale, effective concentration). Details: species or system Fasciola hepatica. The conditions noted are these: Fasciola hepatica, 72 h, read-out: Effective in vitro concentration. The method, then:
Representative compounds of formula (I), formula (II), and formula (III) were tested in vitro against F. hepatica as follows. Adult F. hepatica (fluke) were collected from infected bovine livers obtained from a local abattoir (Basel, Switzerland). The worms were quickly washed with 0.9% (w/v) NaCl and placed in 6 or 12-well plates (Costar). Culture medium in each well contained RPMI 1640 (Gibco) at 37° C., which was supplemented with antibiotics (50 μg/ml streptomycin and 50 IU/ml penicillin; Gibco) and 80 μg/ml of a haemin solution. The haemin solution was prepared as follows: 5 mg haemin was dissolved in 1 ml of 0.1M aqueous solution of NaOH, and 3.95 ml of PBS (pH=7.4) and 0.05 ml of 1M HCl were added to adjust the pH to 7.1-7.4 (Keiser and Morson, 2008). Cultures were kept at 37° C. in an atmosphere of 5% CO2. To monitor the temporal effects of test compounds in vitro, 3 flukes were incubated for 72 h in the presence of 50 or 100 μg/ml of each test compound. At 24, 48, and 72 h, worms were examined using a dissecting microscope. For the adult worms, a viability scale ranging from 4 (normal movements) to 1 (death; no movement observed for two min using a microscope) was used.
Table 1 lists representative compounds of formula (I) of the present invention and their effective in vitro concentrations against F. hepatica. All compounds were tested in vitro on the adult stage of F. hepatica as described above. Each data point refers to at least two independent experiments. For Table 1, R2 is H, R4 is Cl and R5 is H.
Table 2 lists representative compounds of formula (II) of the present invention and their effective in vitro concentrations against F. hepatica. All compounds were tested in vitro on the adult stage of F. hepatica as described above. Each data point refers to at least two independent experiments. For Table 2 compounds, the 2-position of the benzimidazole ring is methylthio, R6 is H and R9 is H.
Table 3 lists representative compounds of formula (III) of the present invention and their effective in vitro concentrations against F. hepatica. All compounds were tested in vitro on the adult stage of F. hepatica as described above. Each data point refers to at least two independent experiments. For Table 3, the 2-position of the benzimidazole ring is trifluoromethylthio, R10 is H and R13 is H.
With `FC(F)(F)Sc1nc2cc(Cl)c(-c3ccc(Cl)cc3)cc2[nH]1` [Compound 102, 6-chloro-5-(4-chlorophenyl)-2-trifluoromethylthiobenzimidazole], the minimal effective concentration came to 5 µg/mL. Same read-out and setting: under `FC(F)(F)Sc1nc2cc(Cl)c(-c3cccc(Cl)c3)cc2[nH]1` [Compound 103, 6-chloro-5-(3-chlorophenyl)-2-trifluoromethylthiobenzimidazole] stands 5 µg/mL. For the compound `FC(F)(F)c1nc2cc(Cl)c(-c3cc(Cl)cc(Cl)c3)cc2[nH]1` [Compound 247, 6-chloro-5-(3,5-dichlorophenyl)-2-trifluoromethylbenzimidazole], the minimal effective concentration was 5 µg/mL. The same measure, in the same setting: with `FC(F)(F)c1nc2cc(Cl)c(-c3cc(Cl)cc(Cl)c3Cl)cc2[nH]1` [Compound 261, 6-chloro-5-(2,3,5-trichlorophenyl)-2-trifluoromethylbenzimidazole] the figure was 5 µg/mL. With `Fc1ccc(Oc2cc3[nH]c(C(F)(F)C(F)(F)C(F)(F)F)nc3cc2Cl)c(F)c1` [Compound 279, 5-chloro-6-(2,4-difluorophenoxy)-2-(heptafluoropropyl)-1H-1,3-benzodiazole], the minimal effective concentration is below 5 µg/mL. For `Fc1ccc(Oc2cc3[nH]c(C(F)(F)C(F)(F)C(F)(F)F)nc3cc2Cl)cc1` [Compound 284, 5-chloro-6-(4-fluorophenoxy)-2-(heptafluoropropyl)-1H-1,3-benzodiazole], the minimal effective concentration came to 5 µg/mL.

The same test, now with this note: Fasciola hepatica; Table 1, formula (I); adult flukes incubated up to 72 h; at least two independent experiments; read-out: Effective in vitro concentration.
For `FC(F)(F)c1nc2cc(Cl)c(-c3ccc(Cl)c(Cl)c3)cc2[nH]1` [Compound 258, 6-chloro-5-(3,4-dichlorophenyl)-2-trifluoromethylbenzimidazole], the minimal effective concentration was 5 µg/mL. In the case of `FC(F)(F)c1nc2cc(Cl)c(-c3ccc(Cl)cc3Cl)cc2[nH]1` [Compound 260, 6-chloro-5-(2,4-dichlorophenyl)-2-trifluoromethylbenzimidazole], the minimal effective concentration is 5 µg/mL.

Turning to `FC(F)(F)C(F)(F)c1nc2cc(Cl)c(-c3cccc(Cl)c3Cl)cc2[nH]1` [Compound 262-100, 5-chloro-6-(2,3-dichlorophenyl)-2-(pentafluoroethyl)-1H-1,3-benzodiazole], the minimal effective concentration amounted to 10 µg/mL. Same read-out and setting: with `FC(F)(F)c1nc2cc(Cl)c(Oc3ccc(Cl)cc3Cl)cc2[nH]1` [Compound 275, 5-chloro-6-(2,4-dichlorophenoxy)-2-(trifluoromethyl)-1H-1,3-benzodiazole] the figure was 10 µg/mL; with `FC(F)(F)C(F)(F)c1nc2cc(Cl)c(Oc3ccc(Cl)cc3Cl)cc2[nH]1` [Compound 276, 5-chloro-6-(2,4-dichlorophenoxy)-2-(pentafluoroethyl)-1H-1,3-benzodiazole], below 5 µg/mL; with `Fc1ccc(Oc2cc3[nH]c(C(F)(F)F)nc3cc2Cl)c(F)c1` [Compound 277, 5-chloro-6-(2,4-difluorophenoxy)-2-(trifluoromethyl)-1H-1,3-benzodiazole], 10 µg/mL. On the same count and under the same terms, under `Fc1ccc(Oc2cc3[nH]c(C(F)(F)C(F)(F)F)nc3cc2Cl)c(F)c1` [Compound 278, 5-chloro-6-(2,4-difluorophenoxy)-2-(pentafluoroethyl)-1H-1,3-benzodiazole] stands below 5 µg/mL; under `Fc1ccc(-c2cc3[nH]c(C(F)(F)F)nc3cc2Cl)cc1` [Compound 280, 5-chloro-6-(4-fluorophenyl)-2-(trifluoromethyl)-1H-1,3-benzodiazole], 20 µg/mL. Regarding `Fc1ccc(-c2cc3[nH]c(C(F)(F)C(F)(F)F)nc3cc2Cl)cc1` [Compound 281, 5-chloro-6-(4-fluorophenyl)-2-(pentafluoroethyl)-1H-1,3-benzodiazole], the minimal effective concentration turned out to be 5 µg/mL. As for `Fc1ccc(Oc2cc3[nH]c(C(F)(F)C(F)(F)F)nc3cc2Cl)cc1` [Compound 283, 5-chloro-6-(4-fluorophenoxy)-2-(pentafluoroethyl)-1H-1,3-benzodiazole], the minimal effective concentration is below 2.5 µg/mL.

As to `FC(F)(F)c1ccc(Oc2cc3[nH]c(C(F)(F)F)nc3cc2Cl)cc1` [Compound 286, 5-chloro-2-(trifluoromethyl)-6-[4-(trifluoromethyl)phenoxy]-1H-1,3-benzodiazole], the minimal effective concentration turned out to be 20 µg/mL.

Regarding `FC(F)(F)c1ccc(Oc2cc3[nH]c(C(F)(F)C(F)(F)F)nc3cc2Cl)cc1` [Compound 287, 5-chloro-2-(pentafluoroethyl)-6-[4-(trifluoromethyl)phenoxy]-1H-1,3-benzodiazole], the minimal effective concentration worked out at 50 µg/mL. The same measure, in the same setting: with `FC(F)(F)c1ccc(Oc2cc3[nH]c(C(F)(F)C(F)(F)C(F)(F)F)nc3cc2Cl)cc1` [Compound 288, 5-chloro-2-(heptafluoropropyl)-6-[4-(trifluoromethyl)phenoxy]-1H-1,3-benzodiazole] the figure was 20 µg/mL; with `FC(F)(F)c1ccc(-c2cc3[nH]c(C(F)(F)C(F)(F)F)nc3cc2Cl)cc1` [Compound 289, 5-chloro-2-(pentafluoroethyl)-6-[4-(trifluoromethyl)phenyl]-1H-1,3-benzodiazole], below 2.5 µg/mL. Regarding `FC(F)(F)c1ccc(Oc2cc3[nH]c(C(F)(F)C(F)(F)F)nc3cc2Cl)c(Cl)c1` [Compound 296, 5-chloro-6-[2-chloro-4-(trifluoromethyl)phenoxy]-2-(pentafluoroethyl)-1H-1,3-benzodiazole], the minimal effective concentration is below 2.5 µg/mL. On the same count and under the same terms, with `FC(F)(F)c1ccc(-c2cc3[nH]c(C(F)(F)F)nc3cc2Cl)c(C(F)(F)F)c1` [Compound 301, 6-[2,4-bis(trifluoromethyl)phenyl]-5-chloro-2-(trifluoromethyl)-1H-1,3-benzodiazole] the figure was below 10 µg/mL. For the compound `FC(F)(F)c1ccc(-c2cc3[nH]c(C(F)(F)C(F)(F)F)nc3cc2Cl)c(C(F)(F)F)c1` [Compound 302, 6-[2,4-bis(trifluoromethyl)phenyl]-5-chloro-2-(pentafluoroethyl)-1H-1,3-benzodiazole], the minimal effective concentration was below 2.5 µg/mL. As to `FC(F)(F)c1nc2cc(Cl)c(-c3ccc(Cl)cc3C(F)(F)F)cc2[nH]1` [Compound 304, 5-chloro-6-[4-chloro-2-(trifluoromethyl)phenyl]-2-(trifluoromethyl)-1H-1,3-benzodiazole], the minimal effective concentration was 20 µg/mL.

Still in this test, the particulars now being: Fasciola hepatica; Table 2, formula (II); adult flukes incubated up to 72 h; at least two independent experiments; read-out: Effective in vitro concentration.
`CSc1nc2cc(Cl)c(Oc3ccccc3Br)cc2[nH]1` [Compound 014, 6-chloro-5-(2-bromophenoxy)-2-methylthiobenzimidazole]: the minimal effective concentration worked out at 50 µg/mL. The same measure, in the same setting: with `CSc1nc2cc(Cl)c(Oc3cccc(C)c3C)cc2[nH]1` [Compound 019, 6-chloro-5-(2,3-dimethylphenoxy)-2-methylthiobenzimidazole] the figure was 20 µg/mL; with `CCCCCCc1cc2[nH]c(SC)nc2cc1Cl` [Compound 024, 6-chloro-5-hexyl-2-methylthiobenzimidazole], 50 µg/mL.

The same test, now with this note: Fasciola hepatica; Table 3, formula (III); adult flukes incubated up to 72 h; at least two independent experiments; read-out: Effective in vitro concentration.
Regarding `FC(F)(F)Sc1nc2cc(Cl)c(Oc3cccc(Cl)c3Cl)cc2[nH]1` [Compound 049, 6-chloro-5-(2,3-dichlorophenoxy)-2-trifluoromethylthiobenzimidazole], the minimal effective concentration came out at 10 µg/mL.

Staying with this test, now noted: Table 3, formula (III); adult flukes incubated up to 72 h; at least two independent experiments.
As for “6-chloro-5-(2-butyl)-cyclopropyl-2-trifluoromethylthiobenzimidazole [Compound 108]”, the “Effective in vitro concentration” value worked out at 10 µg/mL.
